Test results: PubChem BioAssay (NCI)
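These data come from cells grown in 96-well plates and exposed to compound for 48 hours at five concentrations. GI50 is the concentration that inhibits growth by half. Definition used: TGI = concentration required for complete inhibition of growth.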

Experiments:
Assay in all cases: NCI tumour cell line growth inhibition, 48 h
HCT-116 colon = test system: HCT-116 colon
SK-MEL-2 melanoma = test system: SK-MEL-2 melanoma
HCT-15 colon = test system: HCT-15 colon
DLD-1 colon = test system: DLD-1 colon
OVCAR-8 ovarian = test system: OVCAR-8 ovarian
OVCAR-4 ovarian = test system: OVCAR-4 ovarian
KM12 colon = test system: KM12 colon
NCI-H23 lung = test system: NCI-H23 lung
NCI-H226 lung = test system: NCI-H226 lung
SK-MEL-28 melanoma = test system: SK-MEL-28 melanoma
MCF7 breast = test system: MCF7 breast
HT29 colon = test system: HT29 colon
EKVX NSCLC = test system: EKVX NSCLC
CCRF-CEM leukemia = test system: CCRF-CEM leukemia
HOP-92 NSCLC = test system: HOP-92 NSCLC
HOP-62 NSCLC = test system: HOP-62 NSCLC
UACC-257 melanoma = test system: UACC-257 melanoma
RXF 393 renal = test system: RXF 393 renal
SF-268 CNS = test system: SF-268 CNS
HCC-2998 colon = test system: HCC-2998 colon
SN12K1 renal = test system: SN12K1 renal
SK-OV-3 ovarian = test system: SK-OV-3 ovarian
NCI/ADR-RES ovarian = test system: NCI/ADR-RES ovarian
MALME-3M melanoma = test system: MALME-3M melanoma
IGROV1 ovarian = test system: IGROV1 ovarian
UO-31 renal = test system: UO-31 renal
A549 NSCLC = test system: A549 NSCLC
SF-539 CNS = test system: SF-539 CNS
SNB-75 CNS = test system: SNB-75 CNS
NCI-H522 lung = test system: NCI-H522 lung
SNB-78 CNS = test system: SNB-78 CNS
P388 leukemia = test system: P388 leukemia
NCI-H460 lung = test system: NCI-H460 lung
SK-MEL-5 melanoma = test system: SK-MEL-5 melanoma
RPMI-8226 leukemia = test system: RPMI-8226 leukemia
K-562 leukemia = test system: K-562 leukemia
MOLT-4 leukemia = test system: MOLT-4 leukemia
UACC-62 melanoma = test system: UACC-62 melanoma
A498 renal = test system: A498 renal
DMS 273 small cell lung = test system: DMS 273 small cell lung
SN12C renal = test system: SN12C renal
HOP-18 NSCLC = test system: HOP-18 NSCLC
SF-295 CNS = test system: SF-295 CNS
OVCAR-5 ovarian = test system: OVCAR-5 ovarian
SW-620 colon = test system: SW-620 colon
XF 498 CNS = test system: XF 498 CNS
OVCAR-3 ovarian = test system: OVCAR-3 ovarian
M19-MEL melanoma = test system: M19-MEL melanoma
SNB-19 CNS = test system: SNB-19 CNS
HL-60(TB) leukemia = test system: HL-60(TB) leukemia
U251 CNS = test system: U251 CNS
COLO 205 colon = test system: COLO 205 colon
LOX IMVI melanoma = test system: LOX IMVI melanoma
786-0 renal = test system: 786-0 renal
M14 melanoma = test system: M14 melanoma
LXFL 529 NSCLC = test system: LXFL 529 NSCLC
CAKI-1 renal = test system: CAKI-1 renal
SR leukemia = test system: SR leukemia
TK-10 renal = test system: TK-10 renal
DMS 114 small cell lung = test system: DMS 114 small cell lung
KM20L2 colon = test system: KM20L2 colon
RXF-631 renal = test system: RXF-631 renal
ACHN renal = test system: ACHN renal
P388/ADR leukemia = test system: P388/ADR leukemia
MDA-MB-231 breast = test system: MDA-MB-231 breast

## Nc1cc(O)c2cc(N=Nc3ccc(N=Nc4ccc(N=Nc5ccc6cc(S(=O)(=O)O)cc(S(=O)(=O)O)c6c5)c5ccccc45)c4cc(S(=O)(=O)O)ccc34)c(S(=O)(=O)O)cc2c1
HCT-116 colon
  TGI: > 100 µM
SK-MEL-2 melanoma
  TGI: > 100 µM
HCT-15 colon
  TGI: > 100 µM
DLD-1 colon
  TGI: > 100 µM
OVCAR-8 ovarian
  TGI: > 100 µM
OVCAR-4 ovarian
  TGI: > 100 µM
KM12 colon
  TGI: > 100 µM
NCI-H23 lung
  TGI: > 100 µM
NCI-H226 lung
  TGI: > 93.3 µM
SK-MEL-28 melanoma
  TGI: > 100 µM
MCF7 breast
  TGI: > 100 µM
HT29 colon
  TGI: > 100 µM
EKVX NSCLC
  TGI: > 100 µM
CCRF-CEM leukemia
  TGI: > 100 µM
HOP-92 NSCLC
  TGI: > 93.3 µM
HOP-62 NSCLC
  TGI: > 100 µM
UACC-257 melanoma
  TGI: > 100 µM
RXF 393 renal
  TGI: > 100 µM
SF-268 CNS
  TGI: > 100 µM
HCC-2998 colon
  TGI: > 100 µM
SN12K1 renal
  TGI: > 100 µM
SK-OV-3 ovarian
  TGI: > 100 µM
NCI/ADR-RES ovarian
  TGI: > 100 µM
MALME-3M melanoma
  TGI: > 100 µM
IGROV1 ovarian
  TGI: > 100 µM
UO-31 renal
  TGI: > 100 µM
A549 NSCLC
  TGI: > 100 µM
SF-539 CNS
  TGI: > 100 µM
SNB-75 CNS
  TGI: > 100 µM
NCI-H522 lung
  TGI: > 100 µM
SNB-78 CNS
  TGI: > 100 µM
P388 leukemia
  TGI: > 100 µM
NCI-H460 lung
  TGI: > 100 µM
SK-MEL-5 melanoma
  TGI: > 100 µM
RPMI-8226 leukemia
  TGI: > 100 µM
K-562 leukemia
  TGI: > 31.6 µM
MOLT-4 leukemia
  TGI: > 100 µM
UACC-62 melanoma
  TGI: > 100 µM
A498 renal
  TGI: > 100 µM
DMS 273 small cell lung
  TGI: > 100 µM
SN12C renal
  TGI: > 100 µM
HOP-18 NSCLC
  TGI: > 100 µM
SF-295 CNS
  TGI: > 100 µM
OVCAR-5 ovarian
  TGI: > 100 µM
SW-620 colon
  TGI: > 100 µM
XF 498 CNS
  TGI: > 100 µM
OVCAR-3 ovarian
  TGI: > 100 µM
M19-MEL melanoma
  TGI: > 100 µM
SNB-19 CNS
  TGI: > 100 µM
HL-60(TB) leukemia
  TGI: > 100 µM
U251 CNS
  TGI: > 100 µM
COLO 205 colon
  TGI: > 100 µM
LOX IMVI melanoma
  TGI: > 100 µM

## CC1=CC(=O)N2[C@H](OC[C@@H]2C(C)C)O1
HCT-116 colon
  TGI: > 100 µM
SK-MEL-2 melanoma
  TGI: > 100 µM
HCT-15 colon
  TGI: > 100 µM
DLD-1 colon
  TGI: > 100 µM
OVCAR-8 ovarian
  TGI: > 100 µM
OVCAR-4 ovarian
  TGI: > 100 µM
KM12 colon
  TGI: > 100 µM
NCI-H23 lung
  TGI: > 100 µM
NCI-H226 lung
  TGI: > 100 µM
SK-MEL-28 melanoma
  TGI: > 100 µM
HT29 colon
  TGI: > 100 µM
786-0 renal
  TGI: > 100 µM
CCRF-CEM leukemia
  TGI: > 100 µM
HOP-92 NSCLC
  TGI: > 100 µM
M14 melanoma
  TGI: > 100 µM
HOP-62 NSCLC
  TGI: > 100 µM
LXFL 529 NSCLC
  TGI: > 100 µM
UACC-257 melanoma
  TGI: > 100 µM
RXF 393 renal
  TGI: > 100 µM
SF-268 CNS
  TGI: > 100 µM
CAKI-1 renal
  TGI: > 100 µM
SK-OV-3 ovarian
  TGI: > 100 µM
SR leukemia
  TGI: > 100 µM
MALME-3M melanoma
  TGI: > 100 µM
IGROV1 ovarian
  TGI: > 100 µM
UO-31 renal
  TGI: > 100 µM
A549 NSCLC
  TGI: > 100 µM
TK-10 renal
  TGI: > 100 µM
SF-539 CNS
  TGI: > 100 µM
SNB-75 CNS
  TGI: > 100 µM
NCI-H522 lung
  TGI: > 100 µM
NCI-H460 lung
  TGI: > 100 µM
SK-MEL-5 melanoma
  TGI: > 100 µM
RPMI-8226 leukemia
  TGI: > 100 µM
K-562 leukemia
  TGI: > 100 µM
MOLT-4 leukemia
  TGI: > 100 µM
UACC-62 melanoma
  TGI: > 100 µM
SN12C renal
  TGI: > 100 µM
DMS 114 small cell lung
  TGI: > 100 µM
KM20L2 colon
  TGI: > 100 µM
HOP-18 NSCLC
  TGI: > 100 µM
SF-295 CNS
  TGI: > 100 µM
SW-620 colon
  TGI: > 100 µM
XF 498 CNS
  TGI: > 100 µM
OVCAR-3 ovarian
  TGI: > 100 µM
M19-MEL melanoma
  TGI: > 100 µM
RXF-631 renal
  TGI: > 100 µM
SNB-19 CNS
  TGI: > 100 µM
ACHN renal
  TGI: > 100 µM
HL-60(TB) leukemia
  TGI: > 100 µM
U251 CNS
  TGI: > 100 µM
COLO 205 colon
  TGI: > 100 µM

## O=[N+]([O-])c1cccc2c1[nH]c1c(-c3ccccc3)nccc12
HCT-116 colon
  TGI: 11.2 µM
SK-MEL-2 melanoma
  TGI: 3 µM
HCT-15 colon
  TGI: > 38.5 µM
DLD-1 colon
  TGI: > 48.9 µM
OVCAR-8 ovarian
  TGI: 9.32 µM
OVCAR-4 ovarian
  TGI: > 33.2 µM
KM12 colon
  TGI: 12.3 µM
NCI-H23 lung
  TGI: 8.48 µM
NCI-H226 lung
  TGI: 5.33 µM
SK-MEL-28 melanoma
  TGI: 21.9 µM
MCF7 breast
  TGI: > 24.8 µM
HT29 colon
  TGI: 10.4 µM
EKVX NSCLC
  TGI: > 29.5 µM
CCRF-CEM leukemia
  TGI: 21.9 µM
HOP-92 NSCLC
  TGI: 3.05 µM
HOP-62 NSCLC
  TGI: 5.04 µM
UACC-257 melanoma
  TGI: 6.29 µM
RXF 393 renal
  TGI: 12.4 µM
SF-268 CNS
  TGI: > 100 µM
HCC-2998 colon
  TGI: 13.9 µM
SN12K1 renal
  TGI: 8.11 µM
SK-OV-3 ovarian
  TGI: 7.75 µM
NCI/ADR-RES ovarian
  TGI: 4.44 µM
MALME-3M melanoma
  TGI: 6.43 µM
IGROV1 ovarian
  TGI: 11.4 µM
UO-31 renal
  TGI: 4.22 µM
P388/ADR leukemia
  TGI: 11.7 µM
A549 NSCLC
  TGI: > 42.5 µM
SF-539 CNS
  TGI: > 69 µM
SNB-75 CNS
  TGI: 7.59 µM
NCI-H522 lung
  TGI: 4.27 µM
P388 leukemia
  TGI: 9.75 µM
NCI-H460 lung
  TGI: > 100 µM
SK-MEL-5 melanoma
  TGI: 3.46 µM
RPMI-8226 leukemia
  TGI: > 100 µM
K-562 leukemia
  TGI: > 100 µM
MOLT-4 leukemia
  TGI: 4.4 µM
UACC-62 melanoma
  TGI: 9.04 µM
A498 renal
  TGI: 12.9 µM
DMS 273 small cell lung
  TGI: 7.58 µM
SN12C renal
  TGI: > 73.1 µM
DMS 114 small cell lung
  TGI: 5.75 µM
KM20L2 colon
  TGI: 10.8 µM
HOP-18 NSCLC
  TGI: 2.82 µM
SF-295 CNS
  TGI: 12.1 µM
OVCAR-5 ovarian
  TGI: > 100 µM
SW-620 colon
  TGI: > 36.9 µM
XF 498 CNS
  TGI: 11.7 µM
OVCAR-3 ovarian
  TGI: 4.45 µM
M19-MEL melanoma
  TGI: 6.14 µM
SNB-19 CNS
  TGI: > 100 µM
HL-60(TB) leukemia
  TGI: 4.35 µM
U251 CNS
  TGI: > 30.3 µM
COLO 205 colon
  TGI: 4.23 µM
LOX IMVI melanoma
  TGI: 10.7 µM

## COc1ccc2c3c(c4cc(OC)c(OC)cc4c2c1)C[C@H]1CCCCN1C3
HCT-116 colon
  TGI: 0.011 µM
DLD-1 colon
  TGI: 0.038 µM
OVCAR-8 ovarian
  TGI: 0.0231 µM
OVCAR-4 ovarian
  TGI: 0.00591 µM
KM12 colon
  TGI: 1.84e-06 µM
NCI-H23 lung
  GI50: 2.01 pM
  TGI: 0.000279 µM
MCF7 breast
  TGI: 0.0316 µM
786-0 renal
  TGI: 0.000212 µM
HOP-62 NSCLC
  TGI: 1.65e-06 µM
CAKI-1 renal
  TGI: 0.00103 µM
SK-OV-3 ovarian
  TGI: 0.0149 µM
MDA-MB-231 breast
  TGI: 1.92 pM
MALME-3M melanoma
  GI50: 1.82 pM
  TGI: 9.88e-06 µM
UO-31 renal
  TGI: 4.42e-06 µM
SNB-75 CNS
  GI50: 1.78 pM
  TGI: 0.000103 µM
NCI-H522 lung
  GI50: 2.82 pM
  TGI: 0.000216 µM
SNB-78 CNS
  TGI: 0.00897 µM
P388 leukemia
  TGI: 0.00512 µM
SW-620 colon
  GI50: 0.00889 µM
U251 CNS
  TGI: 0.0212 µM
LOX IMVI melanoma
  TGI: 0.029 µM
